Literature values, collected in article PMC2711878 (ACS chemical biology, 2009).

Legend:
[1] = target: monofunctional P. falciparum WT DHFR
[2] = target: P. falciparum double mutant C59R/S108N DHFR
[3] = target: P. falciparum N51I/C59R/S108N/I164L DHFR
[4] = in vivo

## CC1(C)N=C(N)N=C(N)N1OCCCOc1cc(Cl)c(Cl)cc1Cl [WR99210]
[1]
  Ki value, WT DHFR: sub-nanomolar
[2]
  Ki value, double mutant DHFR: sub-nanomolar
[3]
  Ki value, quadruple mutant DHFR: sub-nanomolar
[4]
  oral bioavailability: poor

## CCc1nc(N)nc(N)c1-c1ccc(Cl)cc1 [pyrimethamine]
[1]; read-out: Ki, WT DHFR, monofunctional enzyme
  Ki: 1.5 nM
[2]; C59R/S108N, monofunctional enzyme
  Ki, fold less inhibitory than WT, double mutant: 50 fold
[3]; N51I/C59R/S108N/I164L, monofunctional enzyme
  Ki, fold less inhibitory than WT, quadruple mutant: > 500 fold
